Assay: HCV replicon assay (luciferase reporter, ET cell line)
Type: cell-based
Conditions: Hepatitis C virus, HCV replicon luciferase activity in ET cells
Procedure, shortened: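 EC50 and, via WST-1 cytotoxicity, TC50 were fitted with a Hill-coefficient equation to % inhibition across 10 two-fold dilutions. Compounds at 0.1 nM-[…] with 0.5% DMSO were applied 24 h post-seeding to replicon-bearing ET cells (luc-ubi-neo/NS3-5B, adaptive mutations). Firefly luciferase signal was measured after 48-72 h.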

O=C(c1nc2c(C(F)(F)F)cc(-c3ccoc3)cn2c1Cl)N1CCC(c2ccc(F)cc2)C1 (stereo not shown) [Compound 233, (3-Chloro-6-furan-3-yl-8-trifluoromethyl-imidazo[1,2-a]pyridin-2-yl)-[3-(4-fluoro-phenyl)-pyrrolidin-1-yl]-methanone]
inhibition at 10 µM: 90.6%

O=C(c1nc2c(C(F)(F)F)cc(-c3cccc(F)c3)cn2c1Cl)N1CCC(c2ccc(F)cc2)C1 (stereo not shown) [Compound 234, [3-Chloro-6-(3-fluoro-phenyl)-8-trifluoromethyl-imidazo[1,2-a]pyridin-2-yl]-[3-(4-fluoro-phenyl)-pyrrolidin-1-yl]-methanone]
inhibition at 10 µM: 81.8%

COC(=O)Cc1c(C(=O)N2CCC(c3ccc(F)cc3)C2)nc2c(C(F)(F)F)cc(-c3ccoc3)cn12 (stereo not shown) [Compound 235, {2-[3-(4-Fluoro-phenyl)-pyrrolidine-1-carbonyl]-6-furan-3-yl-8-trifluoromethyl-imidazo[1,2-a]pyridin-3-yl}-acetic Acid Methyl Ester]
inhibition at 10 µM: 96.6%

O=C(O)Cc1c(C(=O)N2CCC(c3ccc(F)cc3)C2)nc2c(C(F)(F)F)cc(-c3ccoc3)cn12 (stereo not shown) [Compound 236, {2-[3-(4-Fluoro-phenyl)-pyrrolidine-1-carbonyl]-6-furan-3-yl-8-trifluoromethyl-imidazo[1,2-a]pyridin-3-yl}-acetic Acid]
inhibition at 10 µM: 49%

O=C(c1nc2c(C(F)(F)F)cc(-c3cn[nH]c3)cn2c1Cl)N1CCC(c2ccc(F)cc2)C1 (stereo not shown) [Compound 238, [3-Chloro-6-(1H-pyrazol-4-yl)-8-trifluoromethyl-imidazo[1,2-a]pyridin-2-yl]-[3-(4-fluoro-phenyl)-pyrrolidin-1-yl]-methanone]
inhibition at 10 µM: 86.9%

NC(=O)Cc1c(C(=O)N2CCC(c3ccc(F)cc3)C2)nc2c(C(F)(F)F)cc(-c3ccoc3)cn12 (stereo not shown) [Compound 239, 2-{2-[3-(4-Fluoro-phenyl)-pyrrolidine-1-carbonyl]-6-furan-3-yl-8-trifluoromethyl-imidazo[1,2-a]pyridin-3-yl}-acetamide]
inhibition at 10 µM: 53%

O=C(Cc1c(C(=O)N2CCC(c3ccc(F)cc3)C2)nc2c(C(F)(F)F)cc(-c3ccoc3)cn12)NCc1ccccc1 (stereo not shown) [Compound 240, N-Benzyl-2-{2-[3-(4-fluoro-phenyl)-pyrrolidine-1-carbonyl]-6-furan-3-yl-8-trifluoromethyl-imidazo[1,2-a]pyridin-3-yl}-acetamide]
inhibition at 10 µM: 33.4%

CN(C)CCNC(=O)Cc1c(C(=O)N2CCC(c3ccc(F)cc3)C2)nc2c(C(F)(F)F)cc(-c3ccoc3)cn12 (stereo not shown) [Compound 241, N-(2-Dimethylamino-ethyl)-2-{2-[3-(4-fluoro-phenyl)-pyrrolidine-1-carbonyl]-6-furan-3-yl-8-trifluoromethyl-imidazo[1,2-a]pyridin-3-yl}-acetamide]
inhibition at 10 µM: 100%

O=C(Cc1c(C(=O)N2CCC(c3ccc(F)cc3)C2)nc2c(C(F)(F)F)cc(-c3ccoc3)cn12)NC1CC1 (stereo not shown) [Compound 242, N-Cyclopropyl-2-{2-[3-(4-fluoro-phenyl)-pyrrolidine-1-carbonyl]-6-furan-3-yl-8-trifluoromethyl-imidazo[1,2-a]pyridin-3-yl}-acetamide]
inhibition at 10 µM: 93%

Cc1noc(Cc2c(C(=O)N3CCC(c4ccc(F)cc4)C3)nc3c(C(F)(F)F)cc(-c4ccoc4)cn23)n1 (stereo not shown) [Compound 243, [3-(4-Fluoro-phenyl)-pyrrolidin-1-yl]-[6-furan-3-yl-3-(3-methyl-[1,2,4]oxadiazol-5-ylmethyl)-8-trifluoromethyl-imidazo[1,2-a]pyridin-2-yl]-methanone]
inhibition at 10 µM: 86.2%

CNC(=O)Cc1c(C(=O)N2CCC(c3ccc(F)cc3)C2)nc2c(C(F)(F)F)cc(-c3ccoc3)cn12 (stereo not shown) [Compound 245, 2-{2-[3-(4-Fluoro-phenyl)-pyrrolidine-1-carbonyl]-6-furan-3-yl-8-trifluoromethyl-imidazo[1,2-a]pyridin-3-yl}-N-methyl-acetamide]
inhibition at 10 µM: 63.9%

O=C(NCc1cccs1)c1cn2nc(-c3ccccc3)cc(C(F)(F)F)c2n1 [Compound 248, 6-Phenyl-8-trifluoromethyl-imidazo[1,2-b]pyridazine-2-carboxylic Acid (thiophen-2-ylmethyl)-amide]
inhibition at 10 µM: 45.8%

O=C(NCc1cccs1)c1nc2c(C(F)(F)F)cc(-c3ccccc3)nn2c1Cl [Compound 249, 3-Chloro-6-phenyl-8-trifluoromethyl-imidazo[1,2-b]pyridazine-2-carboxylic Acid(thiophen-2-ylmethyl)-amide]
inhibition at 10 µM: 81.4%

O=C(NCc1cccs1)c1nc2c(C(F)(F)F)cc(-c3ccccc3)nn2c1Br [Compound 250, 3-Bromo-6-phenyl-8-trifluoromethyl-imidazo[1,2-b]pyridazine-2-carboxylic Acid(thiophen-2-ylmethyl)-amide]
inhibition at 10 µM: 92%

O=C(c1cn2cc(-c3ccoc3)cc(C(F)(F)F)c2n1)N1CCC(c2ccc(F)cc2)C1 (stereo not shown) [Compound 251, [3-(4-Fluoro-phenyl)-pyrrolidin-1-yl]-(6-furan-3-yl-8-trifluoromethyl-imidazo[1,2-a]pyridin-2-yl)-methanone]
inhibition at 10 µM: 93.4%

O=C(c1nc2c(C(F)(F)F)cc(-c3ccccc3)nn2c1Br)N1CCC(c2ccc(F)cc2)C1 (stereo not shown) [Compound 252, (3-Bromo-6-phenyl-8-trifluoromethyl-imidazo[1,2-b]pyridazin-2-yl)-[3-(4-fluoro-phenyl)-pyrrolidin-1-yl]-methanone]
inhibition at 10 µM: 84.8%

O=C(c1nc2c(C(F)(F)F)cc(-c3ccoc3)cn2c1Br)N1CCC(c2ccc(F)cc2)C1 (stereo not shown) [Compound 253, (3-Bromo-6-furan-3-yl-8-trifluoromethyl-imidazo[1,2-a]pyridin-2-yl)-[3-(4-fluoro-phenyl)-pyrrolidin-1-yl]-methanone]
inhibition at 10 µM: 98%

O=C(c1nc2c(C(F)(F)F)cc(-c3ccoc3)cn2c1-c1ccoc1)N1CCC(c2ccc(F)cc2)C1 (stereo not shown) [Compound 254, (3,6-Di-furan-3-yl-8-trifluoromethyl-imidazo[1,2-a]pyridin-2-yl)-[3-(4-fluoro-phenyl)-pyrrolidin-1-yl]-methanone]
inhibition at 10 µM: 46.9%

O=C(c1cn2cc(-c3cn[nH]c3)cc(C(F)(F)F)c2n1)N1CCC(c2ccc(F)cc2)C1 (stereo not shown) [Compound 255, [3-(4-Fluoro-phenyl)-pyrrolidin-1-yl]-[6-(1H-pyrazol-4-yl)-8-trifluoromethyl-imidazo[1,2-a]pyridin-2-yl]-methanone]
inhibition at 10 µM: 76.6%

O=C(c1nc2c(C(F)(F)F)cc(-c3cn[nH]c3)cn2c1Br)N1CCC(c2ccc(F)cc2)C1 (stereo not shown) [Compound 256, [3-Bromo-6-(1H-pyrazol-4-yl)-8-trifluoromethyl-imidazo[1,2-a]pyridin-2-yl]-[3-(4-fluoro-phenyl)-pyrrolidin-1-yl]-methanone]
inhibition at 10 µM: 92%

O=C(c1nc2c(C(F)(F)F)cc(-c3cn[nH]c3)cn2c1Cl)N1CCC(c2ccccc2F)C1 (stereo not shown) [Compound 257, [3-Chloro-6-(1H-pyrazol-4-yl)-8-trifluoromethyl-imidazo[1,2-a]pyridin-2-yl]-[3-(2-fluoro-phenyl)-pyrrolidin-1-yl]-methanone]
inhibition at 10 µM: 92.2%

O=C(c1nc2c(C(F)(F)F)cc(-c3cn[nH]c3)cn2c1Cl)N1CCC(c2cccc(F)c2)C1 (stereo not shown) [Compound 258, [3-Chloro-6-(1H-pyrazol-4-yl)-8-trifluoromethyl-imidazo[1,2-a]pyridin-2-yl]-[3-(3-fluoro-phenyl)-pyrrolidin-1-yl]-methanone]
inhibition at 10 µM: 91%

O=C(c1nc2c(C(F)(F)F)cc(-c3ccoc3)cn2c1Cl)N1CC=C(c2ccccc2)C1 [Compound 259, (3-chloro-6-furan-3-yl-8-trifluoromethyl-imidazo[1,2-a]pyridin-2-yl)-(3-phenyl-2,5-dihydro-pyrrol-1-yl)-methanone]
inhibition at 10 µM: 99.4%

O=C(c1nc2c(C(F)(F)F)cc(-c3ccoc3)cn2c1Cl)N1CCC(c2ccccc2)C1 (stereo not shown) [Compound 260, (3-Chloro-6-furan-3-yl-8-trifluoromethyl-imidazo[1,2-a]pyridin-2-yl)-(3-phenyl-pyrrolidin-1-yl)-methanone]
inhibition at 10 µM: 96%

O=C(c1nc2c(C(F)(F)F)cc(-c3ccoc3)cn2c1Cl)N1CC[C@H](c2ccccc2)C1 [Compound 261, (3-Chloro-6-furan-3-yl-8-trifluoromethyl-imidazo[1,2-a]pyridin-2-yl)-(3-(R)-phenyl-pyrrolidin-1-yl)-methanone]
inhibition at 10 µM: 87.9%

O=C(c1nc2c(C(F)(F)F)cc(-c3ccoc3)cn2c1Cl)N1CC[C@@H](c2ccccc2)C1 [Compound 262, (3-Chloro-6-furan-3-yl-8-trifluoromethyl-imidazo[1,2-a]pyridin-2-yl)-(3-(S)-phenyl-pyrrolidin-1-yl)-methanone]
inhibition at 10 µM: 97.3%

O=C(NCc1cccs1)c1nc2c(-c3ccoc3)cc(-c3ccccc3)cn2c1Cl [Compound 263]
inhibition at 10 µM: 60.3%

CCN(CC)C(=O)/C=C/c1cc(-c2ccccc2)cn2c(Cl)c(C(=O)NCc3cccs3)nc12 [Compound 268, 3-Chloro-8-((E/Z)-2-diethylcarbamoyl-vinyl)-6-phenyl-imidazo[1,2-a]pyridine-2-carboxylic Acid (thiophen-2-ylmethyl)-amide]
inhibition at 10 µM: 40.2%

O=C(c1nc2c(C(F)(F)F)cc(-c3ccoc3)cn2c1Cl)N1CCC(c2ccccc2F)CC1 [Compound 275, (3-chloro-6-furan-3-yl-8-trifluoromethyl-imidazo[1,2-a]pyridine-2-yl)-[4-(2-fluoro-phenyl)-piperidin-1-yl]-methanone]
inhibition at 10 µM: 97.8%

O=C(c1nc2c(C(F)(F)F)cc(-c3ccoc3)cn2c1Cl)N1CCC(c2cccc(F)c2)CC1 [Compound 276, (3-Chloro-6-furan-3-yl-8-trifluoromethyl-imidazo[1,2-a]pyridine-2-yl)-[4-(3-fluoro-phenyl)-piperidin-1-yl]-methanone]
inhibition at 10 µM: 74%

O=C(c1nc2c(C(F)(F)F)cc(-c3ccoc3)cn2c1Cl)N1CCC(c2ccc(F)cc2)CC1 [Compound 277, (3-Chloro-6-furan-3-yl-8-trifluoromethyl-imidazo[1,2-a]pyridine-2-yl)-[4-(4-fluoro-phenyl)-piperidin-1-yl]-methanone]
inhibition at 10 µM: 71.7%

Source: patent US20120121540A1 (priority 2007, published 2012)
